Measurements taken from doi:10.1101/2023.09.29.560149v2 (biorxiv, 2024).

What was measured:
[1] = system: Chikungunya virus CHIKV; experiment: microbe, parasite or virus in culture; settings: Vero, 24 h, read-out: CHIKV EC50 (µM)
[2] = in vitro; settings: hamster, bhk-21 cells
[3] = in vitro; settings: african green monkey, vero cells
[4] = system: Sindbis virus SINV; experiment: microbe, parasite or virus in culture; settings: Vero, 24 h, read-out: SINV EC50 (µM)

SMILES: C[C@H]1CC[C@]2(NC1)O[C@H]1C[C@H]3[C@@H]4CC[C@H]5C[C@@H](O)CC[C@]5(C)[C@H]4CC[C@]3(C)[C@H]1[C@@H]2C [Tomatidine]
- EC50 [1]: 5.35 µM
- CC50 at 24 h [2]: 23.8 µM
- CC50 at 24 h [3]: 17.2 µM
- EC50 [4]: 2.47 µM

SMILES: O=C1Nc2ccc(Cl)cc2[C@@](C#CC2CC2)(C(F)(F)F)O1 [efavirenz]
- EC50 [1]: 1.33 µM
- CC50 at 24 h [2]: 40.9 µM
- CC50 at 24 h [3]: 53.6 µM
- EC50 [4]: 0.72 µM
